Reference: PubChem BioAssay (NCI)
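Where inhibition never reached the appropriate level, the endpoint shown equals the highest concentration tested. Otherwise, values were interpolated linearly from a five-concentration, 48-hour dose response in 96-well plates. TGI marks complete inhibition of growth.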

Assays:
Experiment in all cases: NCI-60 cell line screen, 48 h
[1] = test system: 786-0 renal
[2] = test system: A498 renal
[3] = test system: A549 NSCLC
[4] = test system: ACHN renal
[5] = test system: BT-549 breast
[6] = test system: CAKI-1 renal
[7] = test system: CCRF-CEM leukemia
[8] = test system: COLO 205 colon
[9] = test system: DU-145 prostate
[10] = test system: EKVX NSCLC
[11] = test system: HCC-2998 colon
[12] = test system: HCT-116 colon
[13] = test system: HCT-15 colon
[14] = test system: HL-60(TB) leukemia
[15] = test system: HOP-62 NSCLC
[16] = test system: HOP-92 NSCLC
[17] = test system: HT29 colon
[18] = test system: K-562 leukemia
[19] = test system: KM12 colon
[20] = test system: LOX IMVI melanoma
[21] = test system: MALME-3M melanoma
[22] = test system: MCF7 breast
[23] = test system: MDA-MB-231 breast
[24] = test system: MDA-MB-435
[25] = test system: MDA-N
[26] = test system: MOLT-4 leukemia
[27] = test system: NCI-H226 lung
[28] = test system: NCI-H23 lung
[29] = test system: NCI-H460 lung
[30] = test system: NCI/ADR-RES ovarian
[31] = test system: OVCAR-3 ovarian
[32] = test system: OVCAR-4 ovarian
[33] = test system: OVCAR-5 ovarian
[34] = test system: OVCAR-8 ovarian
[35] = test system: PC-3 prostate
[36] = test system: RPMI-8226 leukemia
[37] = test system: RXF 393 renal
[38] = test system: SF-268 CNS
[39] = test system: SF-295 CNS
[40] = test system: SF-539 CNS
[41] = test system: SK-MEL-2 melanoma
[42] = test system: SK-MEL-28 melanoma
[43] = test system: SK-MEL-5 melanoma
[44] = test system: SK-OV-3 ovarian
[45] = test system: SN12C renal
[46] = test system: SNB-19 CNS
[47] = test system: SNB-75 CNS
[48] = test system: SW-620 colon
[49] = test system: TK-10 renal
[50] = test system: U251 CNS
[51] = test system: UACC-257 melanoma
[52] = test system: UACC-62 melanoma
[53] = test system: UO-31 renal
[54] = test system: IGROV1 ovarian
[55] = test system: M14 melanoma
[56] = test system: T-47D breast
[57] = test system: NCI-H522 lung
[58] = test system: SR leukemia

## CCCCS/C(=C(/C#N)C(N)=O)c1cc2c([nH]1)CCCC2
[1]
  TGI: 24 µM
[2]
  TGI: 31.4 µM
[3]
  TGI: > 100 µM
[4]
  TGI: 39.7 µM
[5]
  TGI: 27.8 µM
[6]
  TGI: 29.5 µM
[7]
  TGI: 48.9 µM
[8]
  TGI: 27.9 µM
[9]
  TGI: 25.4 µM
[10]
  TGI: 24.4 µM
[11]
  TGI: 26.7 µM
[12]
  TGI: 23 µM
[13]
  TGI: 21.4 µM
[14]
  TGI: 11.6 µM
[15]
  TGI: 72 µM
[16]
  TGI: 38.7 µM
[17]
  TGI: 15 µM
[18]
  TGI: > 100 µM
[19]
  TGI: 23.5 µM
[20]
  TGI: 21.1 µM
[21]
  TGI: 23.8 µM
[22]
  TGI: 50.4 µM
[23]
  TGI: 30.3 µM
[24]
  TGI: 11.9 µM
[25]
  TGI: 18.3 µM
[26]
  TGI: 38.6 µM
[27]
  TGI: 34.7 µM
[28]
  TGI: 36.7 µM
[29]
  TGI: 48.3 µM
[30]
  TGI: 28.6 µM
[31]
  TGI: 36.5 µM
[32]
  TGI: 36.1 µM
[33]
  TGI: > 100 µM
[34]
  TGI: 36.5 µM
[35]
  TGI: 46.5 µM
[36]
  TGI: 29.6 µM
[37]
  TGI: 38.6 µM
[38]
  TGI: 26.7 µM
[39]
  TGI: 28.5 µM
[40]
  TGI: 30 µM
[41]
  TGI: 34.7 µM
[42]
  TGI: 28.2 µM
[43]
  TGI: 26.7 µM
[44]
  TGI: 93.8 µM
[45]
  TGI: 43.1 µM
[46]
  TGI: 34.4 µM
[47]
  TGI: 29.1 µM
[48]
  TGI: 24.6 µM
[49]
  TGI: 29 µM
[50]
  TGI: 31.2 µM
[51]
  TGI: 32.4 µM
[52]
  TGI: 22.8 µM
[53]
  TGI: 25.8 µM

## CC(=O)OCc1cc(=O)n2c([nH]c3ccccc32)c1C#N
[1]
  TGI: > 100 µM
[2]
  TGI: > 100 µM
[3]
  TGI: > 100 µM
[4]
  TGI: > 100 µM
[5]
  TGI: > 100 µM
[6]
  TGI: > 100 µM
[7]
  TGI: > 100 µM
[8]
  TGI: > 100 µM
[9]
  TGI: > 100 µM
[10]
  TGI: > 100 µM
[11]
  TGI: > 100 µM
[12]
  TGI: > 100 µM
[13]
  TGI: > 100 µM
[14]
  TGI: > 100 µM
[16]
  TGI: > 100 µM
[17]
  TGI: > 100 µM
[54]
  TGI: > 100 µM
[18]
  TGI: > 100 µM
[20]
  TGI: > 100 µM
[55]
  TGI: > 100 µM
[21]
  TGI: > 100 µM
[22]
  TGI: > 100 µM
[23]
  TGI: > 100 µM
[25]
  TGI: > 100 µM
[26]
  TGI: > 100 µM
[27]
  TGI: > 100 µM
[28]
  TGI: > 100 µM
[29]
  TGI: 64.8 µM
[30]
  TGI: > 100 µM
[31]
  TGI: > 100 µM
[32]
  TGI: 60.9 µM
[33]
  TGI: > 100 µM
[34]
  TGI: > 100 µM
[35]
  TGI: > 100 µM
[37]
  TGI: > 100 µM
[39]
  TGI: > 100 µM
[40]
  TGI: > 100 µM
[41]
  TGI: > 100 µM
[42]
  TGI: > 100 µM
[43]
  TGI: > 100 µM
[44]
  TGI: > 100 µM
[45]
  TGI: > 100 µM
[46]
  TGI: > 100 µM
[48]
  TGI: > 100 µM
[56]
  TGI: > 100 µM
[49]
  TGI: > 100 µM
[50]
  TGI: > 100 µM
[51]
  TGI: > 100 µM
[52]
  TGI: > 100 µM
[53]
  TGI: > 100 µM

## c1ccc(P2c3ccccc3Nc3ccccc32)cc1
[1]
  TGI: > 100 µM
[2]
  TGI: 76.6 µM
[3]
  TGI: > 100 µM
[4]
  TGI: > 100 µM
[6]
  TGI: > 100 µM
[7]
  TGI: 72 µM
[8]
  TGI: > 100 µM
[9]
  TGI: > 100 µM
[10]
  TGI: > 100 µM
[11]
  TGI: > 100 µM
[12]
  TGI: > 100 µM
[13]
  TGI: > 100 µM
[14]
  TGI: 55.8 µM
[15]
  TGI: > 100 µM
[16]
  TGI: 97.4 µM
[17]
  TGI: > 100 µM
[54]
  TGI: > 100 µM
[18]
  TGI: > 100 µM
[19]
  TGI: > 100 µM
[20]
  TGI: > 100 µM
[55]
  TGI: > 100 µM
[21]
  TGI: > 100 µM
[22]
  TGI: > 100 µM
[23]
  TGI: > 100 µM
[24]
  TGI: > 100 µM
[25]
  TGI: > 100 µM
[26]
  TGI: 58.7 µM
[27]
  TGI: > 100 µM
[28]
  TGI: > 100 µM
[29]
  TGI: > 100 µM
[57]
  TGI: > 100 µM
[30]
  TGI: > 100 µM
[31]
  TGI: 47.3 µM
[32]
  TGI: > 100 µM
[33]
  TGI: > 100 µM
[34]
  TGI: > 100 µM
[35]
  TGI: 87.1 µM
[37]
  TGI: > 100 µM
[38]
  TGI: > 100 µM
[39]
  TGI: > 100 µM
[40]
  TGI: > 100 µM
[41]
  TGI: > 100 µM
[42]
  TGI: > 100 µM
[43]
  TGI: 82.5 µM
[44]
  TGI: > 100 µM
[45]
  TGI: > 100 µM
[46]
  TGI: > 100 µM
[47]
  TGI: 71 µM
[58]
  TGI: 49.4 µM
[48]
  TGI: > 100 µM
[56]
  TGI: > 100 µM
[49]
  TGI: > 100 µM
[50]
  TGI: > 100 µM
[51]
  TGI: > 100 µM
[52]
  TGI: > 100 µM
[53]
  TGI: > 100 µM
